Results as given in patent publication US20260077055A1, “COMPOSITIONS OF POLYPLEXES AND SAPONINS” (SAPREME TECHNOLOGIES B.V., priority 2022, published 2026).
Where a SMILES comes first, the peptide text is derived from it. [ ]: non-standard residue; d: D form. Lys(N3) = [N-]=[N+]=NCCCC[C@H](N)C(=O)O

Tests used:
RBCs = experiment: Erythrocyte aggregation under optical microscope; conditions: up to 80 μg/mL
Procedure: (§1) As a next step, the erythrocyte aggregation propensity of the scaffolds was examined under an optical microscope to visualize possible interactions of the scaffolds and polyplexes with RBCs and their surface (FIG. 24C). […] Next, the impact on haemostasis was investigated. […] Consequently, to investigate the impact of the PAMAM- and peptide-based scaffolds on the patient's blood coagulation, these two parameters were measured in fresh whole blood after incubation of nanoparticles at different concentrations (0 nM-5 μM).

intrinsic pathway = experiment: Activated partial thromboplastin time in fresh whole blood; conditions: 0.1 μM; reference 26-40 s
Procedure: as §1

EGFR+ A431 cells = experiment: Cell viability (MTS) after polyplex transfection of A431 cells; format: cell-based; conditions: for cell killing activity / saporin gene delivery, K16C npSaporin polyplexes: K16C alone up to about 5000 μM of plasmids (printed), SO1861-EMCH = free, co-administered with K16C-polyplexes
Procedure: Spectrophotometry: Concentrations were determined using either a Thermo Nanodrop 2000 spectrometer or Perkin Elmer Lambda 365 Spectrophotometer. DLS measurements: DLS measurements were performed on a Malvern Nano ZS (Malvern Instruments, U.K.), operating at 633 nm with a 173° scattering angle, at 25 or 37° C. DLS mean diameters were obtained from the intensity particle size distribution provided by Malvern Zetasizer Software. DLS histograms were obtained from the intensity particle size distributions. Zeta-potential: The zeta-potential values of the polyplexes were obtained by laser doppler anemometry (LDA), measuring the mean electrophoretic mobility (Malvern Zetasizer Nano ZS, Malvern Instruments, U.K.). Measurements were performed in 10 mM HEPES pH 7.1, 150 mM NaCl. TEM measurements: TEM measurements were performed on a JEOL JEM-1011 operated at 100 kV electron microscope, equipped with a camera S5 MegaView G2. A drop of a solution of polyplexes (0.1 mg/mL) was settled on a PELCO® TEM carbon type-B film copper grid and allowed to dry at room temperature for 1 h. Infrared Spectroscopy: FT-IR spectra were recorded on a Bruker Vertex 70v, equipped with a RockSolid interferometer, after preparing the samples (1-2 mg) as KBr pellets. Spectra were processed using OPUS 7.8 software (Bruker). NMR Spectroscopy: 1H NMR spectra were recorded on a 11.7 T Bruker DRX-500 spectrometer. Chemical shifts are reported in ppm (o units) downfield from the HOD residual solvent peak (CD3OD). Experiments were recorded acquiring 64-512 scans, with a pre-scan delay (d1) of 12 s, and an acquisition time (aq) of 4 s at 300 K. 13C NMR spectrum was recorder on a 9.39 T Varian Innova 400 spectrometer. MestReNova 14.2 software (Mestrelab Research) was used for spectra processing. Cell culture conditions and treatments: HEK293FT, A431, A2058, Neuro2A, Hepa1-6 and MDA-MB 468 were maintained in 10% FBS-supplemented DMEM medium (PAN-Biotech GmbH, or Lonza Group, Basel, Switzerland)+Pen/Strep at 37° C. with 5% CO2. […] SO1861-EMCH was conjugated into/onto these polyplexes or co-administrated at 966 or 4000 nM to the different cell lines in vitro (as indicated). For this, cells were seeded in a 96 well plate at 5.000-10.000 c/w in 100 μL/well and incubated overnight at 37° C. Before treatment, the mAb-SO1861 and polyplexes were diluted separately in DPBS (PAN-Biotech GmbH) to 10× the required final concentration. The cells received 80 μL/well fresh media, followed by 20 μL/well polyplex solution and 20 μL/well saponin solution. In particular, before K16-polyplex treatments, K16-polyplexes were formulated in 10 mM HEPES, incubated for 30 min at room temperature and then diluted with complete cell culture medium. The complete cell culture medium was exchanged against 100 μL transfection medium. For co-administration of SO1861-EMCH, the transfection medium was supplemented with 2 μg/mL (=966 nM) SO1861-EMCH. Control transfections were performed with Lipofectamine™ 3000 Transfection Reagent (Thermo Fisher Scientific) according to the manufacturer's instruction, using either […] or 100 ng plasmid and with a media change 4-5 hrs after transfection. […] After treatment, the cells were incubated for 72 hr at 37° C. before the cell viability was determined by a MTS-assay performed according to the manufacturer's instruction (CellTiter 96® AQueous One Solution Cell Proliferation Assay, Promega). […]

red blood cells (RBCs) = experiment: Haemolysis assay; format: cell-based, human; conditions: 2.5-80 μg/mL, 3 h at 37° C.
Procedure: To get a first estimation of the haemolytic activity of the scaffolds and its potential to induce aggregation of red blood cells, possible disruption of red blood cells was investigated by measuring the release of haemoglobin into the supernatant according to the scheme shown in FIG. 24A. First, the red blood cells (RBCs) were treated with solutions containing PAMAM- or peptide-based scaffolds or polyplexes obtained therewith at different concentrations (2.5-80 μg/mL). The incubation was performed for 3 h at 37° C. RBCs treated with PBS under same conditions were used as a negative control while samples treated with Triton X-100 (10%) were used as a positive control corresponding to conditions of full haemolysis. After centrifugation, the absorbance at 540 nm (OD540) of the supernatants was recorded with a spectrometer. The following equation was used for the calculation of the percentages of haemolysis: […]

[1] = tested on: extrinsic part of the coagulation cascade; experiment: Prothrombin time in fresh whole blood; conditions: reference 70-130%
Procedure: as §1

Molecule	erythrocyte aggregation (RBCs)	partial thromboplastin time (PTT) (intrinsic pathway) [s]	cell killing activity / saporin gene delivery, K16C npSaporin polyplexes (EGFR+ A431 cells)	cell killing activity of K16C npSaporin polyplex (EGFR+ A431 cells; up to about 1000 pM of plasmid, absence of free saponin or targeted saponin, N/P ratio 10)	haemolytic activity (red blood cells (RBCs))	prothrombin time (PT) ([1]; 0.1 μM) [%]	prothrombin time (PT) ([1]; 0.5 μM) [%]	prothrombin time (PT) ([1]; 1 μM) [%]	prothrombin time (PT) ([1]; 5 μM) [%]
[N-]=[N+]=NCCCC[C@H](NC(=O)[C@H](Cc1ccc(O)cc1)NC(=O)CNC(=O)CNC(=O)[C@H](CS)NC(=O)CNC(=O)CNC(=O)CNC(=O)CNC(=O)[C@H](CCCCN)NC(=O)[C@H](CCCCN)NC(=O)[C@H](CCCCN)NC(=O)[C@H](CCCCN)NC(=O)[C@H](CCCCN)NC(=O)[C@H](CCCCN)NC(=O)[C@H](CCCCN)NC(=O)[C@H](CCCCN)NC(=O)[C@H](CCCCN)NC(=O)[C@H](CCCCN)NC(=O)[C@H](CCCCN)NC(=O)[C@H](CCCCN)NC(=O)[C@H](CCCCN)NC(=O)[C@H](CCCCN)NC(=O)[C@H](CCCCN)NC(=O)[C@@H](N)CCCCN)C(N)=O [K16C, K16G4CGGYK (N3)] (H-KKKKKKKKKKKKKKKKGGGGCGGY[Lys(N3)]-NH2)	did not cause any RBC aggregation	38.5	practically no cell killing activity	practically no enhanced cell killing activity	surprisingly low haemolysis degree	100	82	61	33.5
K16G4CGGYK (N3)-SO18610.25 [K16C-(SO1861)0.25 eq]			the most efficient in saporin gene delivery into the cytoplasm						
